Counter-ions that a name gives are not always drawn. Like-named read-outs stand apart in the source and are kept apart here.
How the values were obtained:
[1] = molecular target: T1, sigma receptors (Cavia porcellus, UniProt Q60492); test: in vitro affinity for sigma receptors, competition with (+)[3H]SKF10,047; type: binding, guinea-pig (cerebral membranes)
T1 construct: sigma receptors of the cerebral membranes of the guinea-pig used in this study; from tissue; host or cells: guinea-pig cerebral membranes
Procedure: The test is carried out by incubating solutions of suitable concentrations of the products with standard samples of membranes and determining, after filtration, the residual radioactivity of the solution.

[2] = protection from convulsions induced by picrotoxin in mice; type: in vivo, "Swiss" male mice; settings: for i.p.: % prot. (inhibition of convulsions induced by picrotoxin): 50 mg/kg i.p., picrotoxin 24 mg/kg i.p. 30 minutes later; for i.p.: % prot. (inhibition of convulsions induced by picrotoxin) / p.o.: % prot. (inhibition of convulsions induced by picrotoxin): * p<0.05, ** p<0.01, *** p<0.001; for p.o.: % prot. (inhibition of convulsions induced by picrotoxin): 100 mg/kg p.o., picrotoxin 24 mg/kg i.p. 60 minutes later; for ED50: Mus musculus
Procedure: b) The psychotropic properties of the compounds were determined by the protection from convulsions induced by picrotoxin in mice, which was realized in accordance with a method derived from that of Krall and coll., "Epilepsia", 1978, 19, p. 409-428.
The administration of picrotoxin to animals causes a convulsive attack characterized by a myoclonic extension syndrome followed by extension of the limbs leading to death of the animals. Certain substances, in particular those which act on the GABA/benzodiazepine/Cl-ionophor complex, provide protection of the animals from these convulsive attacks.
In practice, the study is carried out on groups of 10 "Swiss" male mice weighing about 20 g, to which the product under investigation is administered in aqueous solution either intraperitoneally (i.p.) or orally (p.o.).
An intraperitoneal injection of a solution of picrotoxin in an amount of 24 mg/kg in a volume of 0.2 ml per animal is then performed, either 30 minutes after intraperitoneal administration of the product or 60 minutes after oral administration of the product, the dose of the product injected in this way causing a clonic attack which leads to death of the untreated animals. Under the conditions of the test, suppression of the tonic extension phase is found in the animals treated.
The results are expressed:
either as the percentage of animals protected from this phase under the action of 50 mg/kg compound under investigation administered i.p. or 100 mg/kg p.o.,
or in the ED50 for each of these groups, which is the effective dose of the compound under investigation expressed in mg/kg which protects 50% of animals from this extension phase, the significance value of the results generally being indicated in the following manner: […]

[3] = molecular target: T2, kappa receptors (Cavia porcellus, UniProt P41144); test: in vitro affinity for kappa receptors; type: binding; settings: Table 3; read-out: kappa rec. IC50
T2 construct: from tissue
Procedure: (§1) The "in vitro" study of the affinity of the compounds according to the invention for the three opium receptors is carried out in accordance with the technique described by F. Roman and coll. in J. Pharm. Pharmacol. 1987, 39, p. 404-407 and the study of the affinity for PCP receptors is carried out in accordance with the technique described by Vignon J. and coll. in "Brain Res." 1983; 280, p. 194-7 and 1986; 378, p. 133-41.
(§2) The results shown in table 3 are, for each receptor studied, expressed in IC50, which are the nanomolar concentrations of the dissolved products which are capable of inhibiting 50% of the bonds between the specific radioactive ligand to the receptor under consideration.

[4] = molecular target: T3, delta receptors (Cavia porcellus, UniProt A0A286XTF2); test: in vitro affinity for delta receptors; type: binding; settings: Table 3; read-out: delta rec. IC50
T3 construct: from tissue
Procedure: as §1, §2

[5] = molecular target: mu receptors; test: in vitro affinity for mu receptors; type: binding; settings: Table 3; read-out: mu rec. IC50
Procedure: as §1, §2

[6] = inhibition of gastro-duodenal ulcers caused by cysteamine; type: in vivo, Wistar female rats; settings: Rattus norvegicus; cysteamine hydrochloride 400 mg/kg s.c.; products orally or subcutaneously; read-out: ED50 - ulceration scores
Procedure: This activity is set in relation to the capacity of the products to cause an increase in the alkaline secretion in the duodenum in anaesthetized animals.
In this test, groups of 6 Wistar female rats with an average weight of 200 g receive a subcutaneous injection of cysteamine hydrochloride in an amount of 400 mg/kg. The products under investigation are administered orally or subcutaneously 1 h or, respectively, 30 minutes before the ulcerogenic agent.
Ten hours thereafter, the rats are sacrificed by elongation and their stomach and duodenum are removed, rinsed with physiological solution and mounted on a card. The presence of ulcers in the antro-pyloric-duodenal zone is examined and their area, expressed in mm^2, is evaluated by multiplying the two main perpendicular axis of the lesion. Statistical analysis of the results is performed with the aid of the Student test for the ulcerated areas in comparison with a control group receiving only excipient.
The results presented in table 5 are expressed in ED50 of ulceration scores, which are the effective doses, expressed in mg/kg product, which cause inhibition of 50% of the ulcerations caused by cysteamine.

[7] = alkaline duodenal secretion in anaesthetized rats; type: in vivo, male rats; settings: 1 mg/kg intravenously
Procedure: The activity of the products on alkaline duodenal secretion in rats is studied in accordance with a technique described by FLEMSTROM and coll. Gastroenterology, 1983, 84, p. 787-794.
The test comprises determination every 10 minutes, for 3 hours and in situ, of the alkaline secretion of a duodenal segment 12 mm in length, with no Brunner glands and situated 2 cm from the pylorus.
The study is performed on male rats of about 350 g previously anaesthetized, in which the duodenal segment chosen in cannulated by 2 glass tubes in accordance with the technique described by the author, and in which a luminal perfusate consisting of 5 ml isotonic NaCl solution is maintained at 37° C.
The variations in the intraluminal alkaline secretion are measured by pHmetry every 10 minutes by means of an automated system maintaining a constant pH of 7.4 by in situ addition of a 0.04N solution of hydrochloric acid. Fifty minutes after the start of the experiment, the products under investigation are administered intravenously or intraarterially in an amount of 1 mg/kg and the volume of hydrochloric acid introduced, which is a reflection of the in situ increase in alkaline secretion, is measured every 10 minutes for 3 hours with respect to the start of the experiment, that is to say for 130 minutes after injection of the product under investigation.
The following are determined for each product:
a) The maximum increase in secretion in micro-eq/cm/h under the action of the drug, taking into account the basal secretion of the same animals observed for 50 minutes before administration of the product.
The results are shown in table 6, which follows, for the products (I) according to the invention administered intravenously in an amount of 1 mg/kg.

[8] = antagonism of amnesia caused by scopolamine, passive avoidance test; type: in vivo, mice
Procedure: The animal is introduced into the illuminated compartment, and when it moves to the dark compartment it receives an electric current (0.35 mA) through the base until it returns to the illuminated compartment, from where it is then removed.
After 24 hours, the operation is repeated. The mouse is replaced in the apparatus and it avoids entering into the dark compartment. The time which elapses before passage into this compartment is recorded; under the conditions of the experiment, the efficacy of the compounds under investigation in antagonizing the amnesic effect of scopolamine, which is administered intraperitoneally in an amount of 1 mg/kg 30 minutes before the animal is first introduced into the apparatus, can be evaluated.
In control mice which have received only scopolamine, the time elapsed before passage after 24 hours is remarkably lower than that observed in the untreated animals.
The study of the products according to the invention by this method is performed on groups of 18 mice and the products are administered orally on the first day in an amount of 0.25 mg/kg 30 minutes before administration of scopolamine i.p.

[9] = molecular target: PCP receptors; test: in vitro affinity for phencyclidine (PCP) receptors; type: binding; settings: Table 3; read-out: PCP rec. IC50
Procedure: as §1, §2

[10] = Table 2, (+)[3H]SKF10,047, guinea-pig cerebral membranes, read-out: IC50 (bonding affinity to sigma receptors)
[11] = IC50 (bonding affinity to sigma receptors), Table 2, (+)[3H]SKF10,047, guinea-pig cerebral membranes
[12] = 0.25 mg/kg orally, scopolamine 1 mg/kg i.p. 30 minutes later, latency after 24 hours, hydrochloride
[13] = po, 1 h, read-out: p.o.: ED50 (inhibition of convulsions induced by picrotoxin)
[14] = Table 3, read-out: sigma rec. IC50

T2 sequence (P41144 whole entry): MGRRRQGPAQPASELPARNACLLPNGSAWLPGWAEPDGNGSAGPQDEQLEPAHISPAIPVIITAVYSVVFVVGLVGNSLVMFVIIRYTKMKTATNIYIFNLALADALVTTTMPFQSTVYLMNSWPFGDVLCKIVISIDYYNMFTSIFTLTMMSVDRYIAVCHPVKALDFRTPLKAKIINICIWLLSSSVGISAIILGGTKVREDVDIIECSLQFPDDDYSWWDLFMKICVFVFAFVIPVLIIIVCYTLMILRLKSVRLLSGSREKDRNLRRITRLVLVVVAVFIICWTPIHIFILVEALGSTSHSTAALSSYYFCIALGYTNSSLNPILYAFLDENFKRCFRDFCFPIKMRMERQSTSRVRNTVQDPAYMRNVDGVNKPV
T1 sequence (Q60492 whole entry): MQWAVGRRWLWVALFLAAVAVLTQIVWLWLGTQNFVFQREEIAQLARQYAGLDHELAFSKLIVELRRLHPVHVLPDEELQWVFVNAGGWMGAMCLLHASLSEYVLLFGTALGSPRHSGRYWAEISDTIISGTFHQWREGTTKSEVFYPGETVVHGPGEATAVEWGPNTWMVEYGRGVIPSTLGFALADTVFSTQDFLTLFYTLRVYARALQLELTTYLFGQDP
T3 sequence (A0A286XTF2 1-366): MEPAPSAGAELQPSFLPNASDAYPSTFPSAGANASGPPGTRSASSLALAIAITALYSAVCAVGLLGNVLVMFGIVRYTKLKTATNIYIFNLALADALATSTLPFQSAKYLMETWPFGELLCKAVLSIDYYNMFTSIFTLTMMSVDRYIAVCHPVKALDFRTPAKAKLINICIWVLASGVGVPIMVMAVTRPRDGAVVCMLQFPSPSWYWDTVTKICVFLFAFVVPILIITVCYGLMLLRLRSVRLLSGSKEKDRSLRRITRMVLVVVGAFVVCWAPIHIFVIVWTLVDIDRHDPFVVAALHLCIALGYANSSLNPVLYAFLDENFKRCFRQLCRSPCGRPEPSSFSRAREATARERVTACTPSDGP

## CCC(CC=Cc1ccccc1)(NC[C@@H]1C[C@H]1c1ccccc1)c1ccccc1 (relative stereo) [Example 3, α-Cinnamyl-α-ethyl-N-(trans-2-phenyl-cyclopropyl)methyl-benzylamine]
[1]; [10]
  IC50: 0.368 µM

## CCC(CC=Cc1ccccc1)(c1ccccc1)N(C)C[C@@H]1C[C@H]1c1ccccc1 (relative stereo) [Example 6, α-Cinnamyl-α-ethyl-N-methyl-N-(trans-2-phenyl-cyclopropyl)-methyl-benzylamine]
[1]; [10]
  IC50: 0.246 µM

## CCC(C[C@@H]1C[C@H]1c1ccccc1)(c1ccco1)N(C)CC1CC1 (relative stereo) [Example 23, trans-N-Cyclopropylmethyl-α-ethyl-N-methyl-α-(2-phenyl-1-cyclopropylmethyl)-2-furfurylamine]
[2]
  i.p.: % prot. (inhibition of convulsions induced by picrotoxin): 50%

## CCC(C[C@@H]1C[C@H]1c1ccccc1)(c1cccs1)N(C)CC1CC1 (relative stereo) [Example 24, trans-N-Cyclopropylmethyl-α-ethyl-N-methyl-α-(2-phenyl-1-cyclopropylmethyl)-2-thiophenemethylamine]
[1]; [10]
  IC50: 0.029 µM
[3]
  IC50: 9.1 µM
[4]
  IC50: 57 µM
[2]
  i.p.: % prot. (inhibition of convulsions induced by picrotoxin): 50%
  p.o.: % prot. (inhibition of convulsions induced by picrotoxin): 50%
[5]
  IC50: 3.02 µM
[6]
  ED50: 45.7 mg/kg

## CCC(C[C@@H]1C[C@H]1c1ccccc1)(c1ccsc1)N(C)CC1CC1 (relative stereo) [Example 25, trans-N-Cyclopropylmethyl-α-ethyl-N-methyl-α-(2-phenyl-1-cyclopropylmethyl)-3-thiophenemethylamine]
[2]
  i.p.: % prot. (inhibition of convulsions induced by picrotoxin): 50%
  p.o.: % prot. (inhibition of convulsions induced by picrotoxin): 50%

## CCC(CC=Cc1ccccc1)(c1ccccc1)N(C)CC1CC1 (single isomer, unassigned) [Example 10, (+)-α-Cinnamyl-N-cyclopropyl-methyl-α-ethyl-N-methyl-benzylamine hydrochloride]
[7]; AUC of alkaline flow rate 1 h to 2 h compared with control animals
  Increase AUC 1 2 h: 66.2
[7]; maximum increase, anaesthetized rats
  Increase in secretion: 7.5 micro-eq/cm/h
[1]; [11]
  IC50: 0.013 µM
[1]; sigma rec. IC50, Table 3
  IC50: 0.013 µM
[8]; [12]
  % antagonism of the amnesia: 76%
[3]
  IC50: 23.8 µM
[4]
  IC50: 67.9 µM
[2]; hydrochloride
  i.p.: % prot. (inhibition of convulsions induced by picrotoxin): 50%
[6]
  ED50: 5 mg/kg

## CCC(CC=Cc1ccccc1)(c1ccccc1)N(C)CC1CC1 (single isomer, unassigned) [Example 11, (-)-α-Cinnamyl-N-cyclopropyl-methyl-α-ethyl-N-methyl-benzylamine hydrochloride]
[1]; [11]
  IC50: 0.102 µM
[1]; sigma rec. IC50, Table 3
  IC50: 0.21 µM
[8]; [12]
  % antagonism of the amnesia: 38%
[3]
  IC50: 5.14 µM
[4]
  IC50: 41.6 µM
[2]; hydrochloride
  i.p.: % prot. (inhibition of convulsions induced by picrotoxin): 70%

## CCC(CC=Cc1ccccc1)(NCC1(C)CC1)c1ccccc1 (stereo not drawn) [Example 2, α-Cinnamyl-α-ethyl-N-(1-methylcyclopropyl)-methyl-benzylamine]
[2]
  p.o.: % prot. (inhibition of convulsions induced by picrotoxin): 90%

## CCC(CC=Cc1ccccc1)(c1ccccc1)N(C)CCC1CC1 (stereo not drawn) [Example 8, α-Cinnamyl-N-cyclopropylethyl-α-ethyl-N-methyl-benzylamine]
[1]; [10]
  IC50: 0.021 µM
[3]
  IC50: 1.52 µM
[4]
  IC50: 7.55 µM
[2]; [13]
  ED50: 53.6 mg/kg
[5]
  IC50: 2.04 µM
[9]
  IC50: 25.9 µM

## CN(CC1CC1)C(C)(CC=Cc1ccccc1)c1ccccc1 (stereo not drawn) [Example 13, α-Cinnamyl-N-cyclopropylmethyl-N-α-dimethyl-benzylamine]
[1]; [14]
  IC50: 0.337 µM
[3]
  IC50: 8.68 µM
[4]
  IC50: 9.37 µM
[2]; ip, 0.5 h, read-out: i.p.: ED50 (inhibition of convulsions induced by picrotoxin)
  ED50: 32.5 mg/kg
[2]; [13]
  ED50: 64.4 mg/kg
[5]
  IC50: 10.2 µM
[9]
  IC50: 10.5 µM

## CC(C)C(CC=Cc1ccccc1)(c1ccccc1)N(C)CC1CC1 (stereo not drawn) [Example 14, α-Cinnamyl-N-cyclopropylmethyl-α-isopropyl-N-methyl-benzylamine]
[1]; [14]
  IC50: 0.669 µM
[3]
  IC50: 76 µM
[4]
  IC50: > 100 µM
[5]
  IC50: 34.2 µM
[9]
  IC50: 14.2 µM

## CCC(CC=Cc1ccc(Cl)c(Cl)c1)(c1ccc(Cl)cc1)N(C)CC1CC1 (stereo not drawn) [Example 16, α-(3',4'-Dichloro)cinnamyl-N-cyclopropyl-methyl-α-ethyl-N-methyl-p-chlorobenzylamine]
[2]
  p.o.: % prot. (inhibition of convulsions induced by picrotoxin): 60%

## CCC(CC=Cc1ccccc1)(c1ccco1)N(C)CC1CC1 (stereo not drawn) [Example 20, α-Cinnamyl-N-cyclopropylmethyl-α-ethyl-N-methyl-2-furfurylamine]
[2]
  p.o.: % prot. (inhibition of convulsions induced by picrotoxin): 60%

## NC(=O)CN1CCCC1=O [piracetam, reference compound]
[8]; 2048 mg/kg p.o.
  % antagonism of the amnesia: 109%
[8]; 2048 mg/kg p.o., listed as piracetam
  % antagonism of the amnesia: about 100%

Source: patent US5034419A, “N-cycloalkylalkylamines, process for their preparation, their use as medicament and their synthesis intermediates” (L'Oreal, priority 1988, dated 1991)
